d = 2'-deoxy (DNA); r = 2'-OH (RNA); {P} = phosphate
Test system: mouse BMDMs
Assay: VEGFA release in mouse BMDMs (ELISA)
Format: cell-based
Details: ELISA
Method: Primary WT or mutant mouse bone marrow derived macrophages (BMDMs) were isolated as previously described (4). BMDMs were cultured in IMDM (Gibco) basal medium containing 10% fetal bovine serum (FBS), 30% L929 supernatants, nonessential amino acids, sodium pyruvate, 2-mercaptoethanol, and antibiotics. THP-1 cells were cultured in RPMI 1640 medium with 10% FBS and antibiotics. Human RPE cells were isolated as previously described and cultured in DMEM medium with 10% FBS and antibiotics. All cells were maintained at 37° C. in a 5% CO2 environment.
The RPE-choroid complex was isolated from mouse eyes on day 3 after laser injury and treatment with FTO inhibitor or vehicle. Eye tissues were lysed by sonication with immunoprecipitation assay (RIPA) buffer (Sigma-Aldrich, R0278, USA) containing protease inhibitor (Sigma-Aldrich, 11836170001, USA), on ice for 15 minutes. The lysate was centrifuged at 20,000×g for 15 minutes at 4° C., and total protein in the lysates was quantified using the Thermo Scientific™ Pierce™ BCA™ Protein Assay (Fisher Scientific, PI23225, USA). VEGFA protein levels in the supernatants were measured by VEGF DuoSet ELISA (R&D Systems, DY493, USA), following the manufacturer's instructions. Mouse BMDMs or human THP-1 cells (5×10^5 cells per well) were plated into six-well plates in complete medium and allowed to adhere overnight. Cells were then incubated for 24 hours in the absence or presence of various doses of FTO inhibitor or METTL3 inhibitors (STM2457, Selleck Chemicals). […] The siRNAs (siFto: 5′-P.G.A.G.G.A.U.C.C.A.A.G.G.C.A.A.A.G.A.U.dT.dT 3′ (SEQ ID NO: 38); siCtrl: 5′-P.U.A.A.G.G.C.U.A.U.G.A.A.G.A.G.A.U.dT.dT 3′; SEQ ID NO: 39), were designed and synthesized by GE Healthcare Dharmacon, were transfected twice with BMDMs by using DharmaFECT 4 Transfection Reagent (Dharmacon, T-2004, USA). VEGFA levels in the supernatants were measured by mouse or human VEGF DuoSet ELISA (R&D Systems, DY493 or DY293B, USA), following the manufacturer's instructions.

Row | Substance | VEGFA release with METTL3 inhibitor (various doses, 24 hours) | VEGFA release after Fto knockdown (BMDMs transfected with siRNA targeting Fto vs control)
1 | STM2457 | dose-dependent increase in VEGFA release | 
2 | siFto: siFto: 5′-P.G.A.G.G.A.U.C.C.A.A.G.G.C.A.A.A.G.A.U.dT.dT 3′ (SEQ ID NO: 38), Dharmacon (sense GAGGAUCCAAGGCAAAGAUTT; sugars from the 5' end r19 d2, 5' {P}, backbone not given here) |  | significantly dampened macrophage mediated VEGFA release

— US20260174858A1, “TARGETING THE m6A MRNA DEMETHYLASE FTO” (University of Virginia Patent Foundation, priority 2022, published 2026)
